Results taken from PubChem BioAssay AID2060901 (Molecular Pharmacology Branch, DTP, NCI, 2025).

Test system: 422866-222-R5-J1-PDC complex spheroids viability
Assay: Anticancer human tumor 422866-222-R5-J1-PDC patient-derived pancreatic adenocarcinoma cell line growth inhibition [RAS]
Settings: for viability, T/C: stronger effect = lower value
Procedure, shortened: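 Tumour cells grown as complex spheroids with HUVEC endothelial cells and mesenchymal stem cells, treated with RAS pathway inhibitor combinations. Each agent spans half-log steps from near clinical Cmax, or 10 microM where Cmax is unknown.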

[1] = curve of first compound, second compound 0.0316 µM
[2] = curve of first compound, second compound 0.1 µM
[3] = curve of first compound, second compound 0.316 µM
[4] = curve of first compound, second compound 1 µM
[5] = curve of first compound, second compound 3.16 µM
[6] = curve of first compound, second compound 10 µM
[7] = second compound 0.0316 µM, first compound 0.0316 µM
[8] = second compound 0.0316 µM, first compound 0.1 µM
[9] = second compound 0.0316 µM, first compound 0.316 µM
[10] = second compound 0.0316 µM, first compound 1 µM
[11] = second compound 0.0316 µM, first compound 3.16 µM
[12] = second compound 0.0316 µM, first compound 10 µM
[13] = second compound 0.1 µM, first compound 0.0316 µM
[14] = second compound 0.1 µM, first compound 0.1 µM
[15] = second compound 0.1 µM, first compound 0.316 µM
[16] = second compound 0.1 µM, first compound 1 µM
[17] = second compound 0.1 µM, first compound 3.16 µM
[18] = second compound 0.1 µM, first compound 10 µM
[19] = second compound 0.316 µM, first compound 0.0316 µM
[20] = second compound 0.316 µM, first compound 0.1 µM
[21] = second compound 0.316 µM, first compound 0.316 µM
[22] = second compound 0.316 µM, first compound 1 µM
[23] = second compound 0.316 µM, first compound 3.16 µM
[24] = second compound 0.316 µM, first compound 10 µM
[25] = second compound 1 µM, first compound 0.0316 µM
[26] = second compound 1 µM, first compound 0.1 µM
[27] = second compound 1 µM, first compound 0.316 µM
[28] = second compound 1 µM, first compound 1 µM
[29] = second compound 1 µM, first compound 3.16 µM
[30] = second compound 1 µM, first compound 10 µM
[31] = second compound 3.16 µM, first compound 0.0316 µM
[32] = second compound 3.16 µM, first compound 0.1 µM
[33] = second compound 3.16 µM, first compound 0.316 µM
[34] = second compound 3.16 µM, first compound 1 µM
[35] = second compound 3.16 µM, first compound 3.16 µM
[36] = second compound 3.16 µM, first compound 10 µM
[37] = second compound 10 µM, first compound 0.0316 µM
[38] = second compound 10 µM, first compound 0.1 µM
[39] = second compound 10 µM, first compound 0.316 µM
[40] = second compound 10 µM, first compound 1 µM
[41] = second compound 10 µM, first compound 3.16 µM
[42] = second compound 10 µM, first compound 10 µM
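Note: spheroids exposed to compounds for 7 days.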
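Throughout, for viability, T/C: 100% = DMSO vehicle control viability.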

C[C@@H](NC(=O)c1ncnc(N)c1Cl)c1ncc(C(=O)Nc2cc(C(F)(F)F)c(Cl)cn2)s1 + C#Cc1c(F)ccc2cc(O)cc(-c3ncc4c(N5CC6CCC(C5)N6)nc(OCC56CCCN5CC(F)C6)nc4c3F)c12
IC50 [1]: > 10 µM | IC50 [2]: > 10 µM | IC50 [3]: > 10 µM | IC50 [4]: < 0.0316 µM | IC50 [5]: < 0.0316 µM | IC50 [6]: < 0.0316 µM | viability, T/C [7]: 108% | viability, T/C [8]: 114% | viability, T/C [9]: 106% | viability, T/C [10]: 117% | viability, T/C [11]: 89% | viability, T/C [12]: 57% | viability, T/C [13]: 103% | viability, T/C [14]: 88.3% | viability, T/C [15]: 89.2% | viability, T/C [16]: 74% | viability, T/C [17]: 85.3% | viability, T/C [18]: 58.3% | viability, T/C [19]: 68.8% | viability, T/C [20]: 67% | viability, T/C [21]: 72.2% | viability, T/C [22]: 55% | viability, T/C [23]: 72.8% | viability, T/C [24]: 48.1% | viability, T/C [25]: 43% | viability, T/C [26]: 44.5% | viability, T/C [27]: 45.4% | viability, T/C [28]: 39.7% | viability, T/C [29]: 49.6% | viability, T/C [30]: 46.7% | viability, T/C [31]: 29% | viability, T/C [32]: 28.4% | viability, T/C [33]: 40.1% | viability, T/C [34]: 28.3% | viability, T/C [35]: 33.1% | viability, T/C [36]: 27.9% | viability, T/C [37]: 24.3% | viability, T/C [38]: 22.6% | viability, T/C [39]: 24.8% | viability, T/C [40]: 24.4% | viability, T/C [41]: 23.9% | viability, T/C [42]: 24.5%

C=CC(=O)N1CCN(c2nc(OCC3CCCN3C)nc3c(F)c(-c4nc(N)cc(C)c4C(F)(F)F)c(Cl)cc23)C(C)C1 (configuration not stated)
viability, T/C (compound 0.00316 µM): 28% [middle of 12 runs] | viability, T/C (compound 0.01 µM): 27.2% [middle of 12 runs] | viability, T/C (compound 0.0316 µM): 24.1% [middle of 12 runs] | viability, T/C (compound 0.1 µM): 24.8% [middle of 12 runs] | viability, T/C (compound 0.316 µM): 26.7% [middle of 12 runs] | viability, T/C (compound 1 µM): 26.5% [middle of 12 runs] | IC50 (compound alone, run of 06/10/2024): < 0.00316 µM | IC50 (curve of compound): < 0.00316 µM

CC1(O)CCCC1n1c(=O)c(C(F)F)cc2cnc(NC3CCN(S(C)(=O)=O)CC3)nc21 (configuration not stated) + C#Cc1c(F)ccc2cc(O)cc(-c3ncc4c(N5CC6CCC(C5)N6)nc(OCC56CCCN5CC(F)C6)nc4c3F)c12
IC50 [1]: 7.57 µM | IC50 [2]: 8.44 µM | IC50 [3]: > 10 µM | IC50 [4]: < 0.0316 µM | IC50 [5]: < 0.0316 µM | IC50 [6]: < 0.0316 µM | viability, T/C [7]: 73.3% | viability, T/C [8]: 79.7% | viability, T/C [9]: 87.4% | viability, T/C [10]: 75.5% | viability, T/C [11]: 69.4% | viability, T/C [12]: 43.5% | viability, T/C [13]: 85% | viability, T/C [14]: 69.9% | viability, T/C [15]: 72.5% | viability, T/C [16]: 78.8% | viability, T/C [17]: 73% | viability, T/C [18]: 46% | viability, T/C [19]: 67.3% | viability, T/C [20]: 67.5% | viability, T/C [21]: 64.5% | viability, T/C [22]: 62.5% | viability, T/C [23]: 72.6% | viability, T/C [24]: 41.6% | viability, T/C [25]: 55.4% | viability, T/C [26]: 43.7% | viability, T/C [27]: 42.2% | viability, T/C [28]: 60.8% | viability, T/C [29]: 70.4% | viability, T/C [30]: 43.3% | viability, T/C [31]: 29.6% | viability, T/C [32]: 27.6% | viability, T/C [33]: 31.6% | viability, T/C [34]: 31.9% | viability, T/C [35]: 42.2% | viability, T/C [36]: 32.3% | viability, T/C [37]: 21% | viability, T/C [38]: 21.5% | viability, T/C [39]: 25% | viability, T/C [40]: 29.3% | viability, T/C [41]: 42.1% | viability, T/C [42]: 36.5%
